The target in data set [1] is T1, Human Recombinant gelatinase A (MMP-2) (Homo sapiens, UniProt P08253).
T1 sequence (P08253 110-660): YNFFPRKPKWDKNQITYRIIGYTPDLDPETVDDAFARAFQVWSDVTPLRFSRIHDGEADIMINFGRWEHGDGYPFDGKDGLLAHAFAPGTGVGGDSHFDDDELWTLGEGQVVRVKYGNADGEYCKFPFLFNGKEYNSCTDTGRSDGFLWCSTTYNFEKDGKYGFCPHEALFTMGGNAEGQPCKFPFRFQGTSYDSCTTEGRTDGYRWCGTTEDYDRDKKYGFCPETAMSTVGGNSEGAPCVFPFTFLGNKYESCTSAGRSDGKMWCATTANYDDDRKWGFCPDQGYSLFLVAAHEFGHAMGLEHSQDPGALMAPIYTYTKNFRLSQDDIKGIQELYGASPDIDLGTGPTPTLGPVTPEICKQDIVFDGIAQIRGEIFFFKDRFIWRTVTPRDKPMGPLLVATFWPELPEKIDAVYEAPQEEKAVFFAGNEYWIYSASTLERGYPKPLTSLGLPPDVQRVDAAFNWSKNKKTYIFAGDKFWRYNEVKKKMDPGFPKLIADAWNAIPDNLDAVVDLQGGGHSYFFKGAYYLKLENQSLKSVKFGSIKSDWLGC
It is filed as biochemical. The settings on record: P218 6 μM, pH 6.5, 25 min, 37° C.

The target in data set [2] is T2, Human recombinant gelatinase B (MMP-9) (Homo sapiens, UniProt P14780).
T2 construct: made in house; host or cells: baculovirus protein expression system
It is filed as biochemical. The settings on record: P218 6 μM, pH 6.5, 25 min, 37° C. The source says:
P218 Fluorogenic Substrate
(§1) MMP Microfluorometric Profiling Assay.

In data set [3] the target is T3, Recombinant Human CHO Stromelysin (MMP-3) (Homo sapiens, UniProt P08254).
T3 construct: made in house; host or cells: CHO
It is filed as biochemical. The settings on record: P218 6 μM, pH 6.5, 25 min, 37° C.
Source text: The reaction was stopped by addition of soybean trypsin inhibitor (SBTI; 5:1 w/w to trypsin concentration).
as §1

The next data set relates to MMP-3. The following applies: WO 9615096 examples; cited from earlier work.
A short description of data set [4]: Stability of hydroxy acids as solids and in aged solutions (spontaneous lactonization). It is filed as physicochemical. The following applies: for stability as solids: purified crystalline hydroxy acids. The source says:
This was evidenced by the chemical shift of H-4 on the 4S lactone at δ5.40 ppm and that on the 4R lactone at δ5.65 ppm. The hydroxy acid that converted to the 2S, 4R lactone was thus identified as the 2S, 4R hydroxy acid (Example 1) and that which converted to the 2S, 4S lactone was identified as the 2S, 4S hydroxy acid (Example 2).

Data set [5] relates to human ovarian carcinoma xenografts. The settings on record: mice bearing human ovarian carcinoma xenografts; cited from earlier work. (In xenograft studies the graft and the host belong to different species.)

Each structure is given as a SMILES string.

T2 sequence (P14780 107-707 limits assumed): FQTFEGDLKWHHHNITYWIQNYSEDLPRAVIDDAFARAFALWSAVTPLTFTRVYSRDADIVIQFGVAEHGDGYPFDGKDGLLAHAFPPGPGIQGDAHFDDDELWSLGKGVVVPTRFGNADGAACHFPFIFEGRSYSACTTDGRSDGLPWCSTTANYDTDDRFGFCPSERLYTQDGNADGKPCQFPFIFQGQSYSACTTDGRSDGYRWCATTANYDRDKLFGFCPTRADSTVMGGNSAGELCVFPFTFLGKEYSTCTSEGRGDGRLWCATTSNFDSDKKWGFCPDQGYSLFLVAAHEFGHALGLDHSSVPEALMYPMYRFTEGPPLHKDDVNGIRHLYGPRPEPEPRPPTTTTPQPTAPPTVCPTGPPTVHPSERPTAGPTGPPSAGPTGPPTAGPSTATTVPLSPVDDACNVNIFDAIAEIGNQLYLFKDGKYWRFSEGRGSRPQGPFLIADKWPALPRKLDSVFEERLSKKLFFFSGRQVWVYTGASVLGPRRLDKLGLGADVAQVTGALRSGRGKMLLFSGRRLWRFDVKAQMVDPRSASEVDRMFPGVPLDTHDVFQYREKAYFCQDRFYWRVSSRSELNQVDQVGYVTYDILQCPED
T3 sequence (P08254 100-477): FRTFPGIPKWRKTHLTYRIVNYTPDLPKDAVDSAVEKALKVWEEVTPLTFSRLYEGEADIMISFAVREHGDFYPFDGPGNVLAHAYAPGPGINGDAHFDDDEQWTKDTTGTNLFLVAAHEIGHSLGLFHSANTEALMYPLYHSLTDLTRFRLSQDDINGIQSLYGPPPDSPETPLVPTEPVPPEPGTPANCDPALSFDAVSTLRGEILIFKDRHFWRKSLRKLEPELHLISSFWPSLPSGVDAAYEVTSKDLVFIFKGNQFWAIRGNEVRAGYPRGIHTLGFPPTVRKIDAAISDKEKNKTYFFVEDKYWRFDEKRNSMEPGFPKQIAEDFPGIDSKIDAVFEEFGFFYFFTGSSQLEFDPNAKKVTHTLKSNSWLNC

Turning to `O=C(C[C@H](CSc1ccccc1)C(=O)O)c1ccc(-c2ccc(Cl)cc2)cc1`, the concentration for half-maximal inhibition (IC50) (in general, the concentration that gives 50% inhibition) in data set [1] came to 0.02 µM; in data set [2], 0.492 µM.

Take `O=C(C[C@H](CSc1ccc(O)cc1)C(=O)O)c1ccc(-c2ccc(Cl)cc2)cc1`: the IC50 stood at 0.003 µM in data set [1], 0.115 µM in data set [2] and 0.155 µM in data set [3].

For `O=C(C[C@H](CCCc1ccccc1)C(=O)O)c1ccc(-c2ccc(Cl)cc2)cc1`, the IC50 in data set [1] was 0.034 µM; in data set [2], 0.209 µM; in data set [3] it was 0.108 µM.

For the compound `CC(C)CC(CC(O)c1ccc(-c2ccc(Cl)cc2)cc1)C(=O)O` (single isomer, unassigned) [Example 33], the “potency as MMP-3 inhibitors relative to corresponding 4-biphenyl-4-oxobutyric acid derivatives” value in the data set with MMP-3 is given as “less potent”.

`CC(C)CC(CC(O)c1ccc(-c2ccc(Cl)cc2)cc1)C(=O)O` (single isomer, unassigned) [Example 34]: the “potency as MMP-3 inhibitors relative to corresponding 4-biphenyl-4-oxobutyric acid derivatives” value with MMP-3 was “less potent”.

Consider `O=C(O)[C@@H](CCCc1ccccc1)CC(O)c1ccc(-c2ccc(Cl)cc2)cc1` (single isomer, unassigned) [drawing 38], for which the IC50 was 0.0094 µM in data set [1], 0.082 µM in data set [2] and 0.05 µM in data set [3].

`O=C(O)[C@@H](CCCc1ccccc1)CC(O)c1ccc(-c2ccc(Cl)cc2)cc1` (single isomer, unassigned) [drawing 39]: the figures for the IC50 in data set [1], in data set [2] and in data set [3] were 0.046 µM, 0.369 µM and 1.2 µM, respectively.

As for `O=C(O)[C@@H](CSc1ccccc1)C[C@@H](O)c1ccc(-c2ccc(Cl)cc2)cc1` [Example 1, [2S, 4R]-4-[4-(4-chlorophenyl)phenyl]-4R-hydroxy-2-(phenylthiomethyl)butanoic acid], in data set [4], the “spontaneous lactonization in aged solutions” value is “slowly showed one or other of the lactones as a result of spontaneous lactonization” and the stability as solids entry is listed as “relatively stable as solids”.

Turning to `O=C(O)[C@@H](CSc1ccccc1)C[C@H](O)c1ccc(-c2ccc(Cl)cc2)cc1` [Example 2, [2S, 4S]-4-[4-(4-chlorophenyl)phenyl]-4-hydroxy-2-(phenylthiomethyl)butanoic acid], in data set [4], the “spontaneous lactonization in aged solutions” value is “slowly showed one or other of the lactones as a result of spontaneous lactonization” and the stability as solids result is recorded as “relatively stable as solids”.

Consider `CNC(=O)[C@H](Cc1ccccc1)NC(=O)[C@H](CC(C)C)[C@H](CSc1cccs1)C(=O)NO` [batimastat], for which the survival result in data set [5] is reported as “prolongs the survival”.

On to `O=C(O)[C@@H](CSc1ccccc1)C[C@@H](O)c1ccc(-c2ccc(Cl)cc2)cc1` [drawing 35], for which the figures for the IC50 in data set [1], in data set [2] and in data set [3] were 0.0028 µM, 0.058 µM and 0.034 µM, respectively.

For `O=C(O)[C@@H](CSc1ccccc1)C[C@H](O)c1ccc(-c2ccc(Cl)cc2)cc1` [drawing 36], the values for the half-maximal inhibitory concentration (IC50) in data set [1], in data set [2] and in data set [3] were 0.062 µM, 0.89 µM and 1.55 µM, respectively.

These data come from patent US5939583A, “Substituted 4-biphenyl-4-hydroxybutyric acid derivatives as matrix metalloprotease inhibitors” (Bayer Corporation, priority 1997, dated 1999).
